Values of other authors as cited in patent US9241912B2, “Agrochemical formulation comprising encapsulated pesticide” (priority 2011, dated 2016).
≈ marks a conversion by molar mass, not a printed value.

Settings: for solubility in water: at 20° C.

Compound	solubility in water [g/L]	solubility in water (in words) (not suitable as solvent B)
CCCC(=O)C(C)CC (stereo not shown) [3-methyl-4-heptanone]	1.9 (≈ 14.8 mM)	
CC(C)C(=O)C(C)(C)C [2,2,4-trimethyl-3-pentanone]	5.5 (≈ 42.9 mM)	
CCCCC(=O)CCC [Example 4-octanone, 4-octanone]	1.0 (≈ 7.8 mM)	
CCC(C)(C)C(C)=O [3,3-dimethyl-2-pentanone]	7.3 (≈ 63.9 mM)	
CC1=CC(=O)CC(C)(C)C1 [isoporone]	15 (≈ 109 mM)	
CCCC(=O)C(C)(C)C [2,2-dimethyl-3-hexanone]	2.8 (≈ 21.8 mM)	
CCC(C)(CC)C(C)=O [3-ethyl-3-methyl-2-pentanone]	1.8 (≈ 14 mM)	
CCC(=O)C(C)(C)CC [4,4-dimethyl-3-hexanone]	2.5 (≈ 19.5 mM)	
CCCCC(C)=O [Example 2-hexanone, 2-hexanone]	14 (≈ 140 mM)	
CC(=O)CC(C)(C)C [4,4-dimethyl-2-pentanone]	10.4 (≈ 91.1 mM)	
CC(=O)CCCC(C)C [6-methyl-2-heptanone]	0.8 (≈ 6.24 mM)	
CCCC(=O)CC(C)C [2-methyl-4-heptanone]	1.7 (≈ 13.3 mM)	
CCC(=O)C(C)(C)C [2,2-dimethyl-3-pentanone]	10.4 (≈ 91.1 mM)	
CCC(=O)C(C)CC (stereo not shown) [4-methyl-3-hexanone]	5.2 (≈ 45.5 mM)	
CCCC(C)(C)C(C)=O [3,3-dimethyl-2-hexanone]	2.7 (≈ 21.1 mM)	
CCCC(=O)C(C)C [2-methyl-3-hexanone]	6.3 (≈ 55.2 mM)	
CC(C)=O [acetone]		completely miscible with water
CCC(=O)CC(C)C [5-methyl-3-hexanone]	5.2 (≈ 45.5 mM)	
CCCCC(=O)C(C)C [2-methyl-3-heptanone]	1.4 (≈ 10.9 mM)	

More lines, main results first:

solubility in water [g/L]	Compound	solubility in water (in words) (not suitable as solvent B)
1.0 (≈ 7.8 mM)	CCC(C)CCC(C)=O (stereo not shown) [5-methyl-2-heptanone]	
1.4 (≈ 10.9 mM)	CCC(C)C(C)C(C)=O (stereo not shown) [3,4-dimethyl-2-hexanone]	
0.9 (≈ 7.02 mM)	CCC(=O)CCC(C)C [6-methyl-3-heptanone]	
1.7 (≈ 13.3 mM)	CCC(C(C)=O)C(C)C (stereo not shown) [3-ethyl-4-methyl-2-pentanone]	
0.9 (≈ 7.02 mM)	CCCCC(C)C(C)=O (stereo not shown) [3-methyl-2-heptanone]	
4.3 (≈ 37.7 mM)	CCC(C)CC(C)=O (stereo not shown) [4-methyl-2-hexanone]	
4.1 (≈ 35.9 mM)	CCCC(C)C(C)=O (stereo not shown) [3-methyl-2-hexanone]	
4.6 (≈ 40.3 mM)	CCC(CC)C(C)=O [3-ethyl-2-pentanone]	
6.7 (≈ 58.7 mM)	CC(=O)C(C)C(C)C (stereo not shown) [3,4-dimethyl-2-pentanone]	
